Consider six compounds from patent US10266544B2, “Aryl substituted aminomethyl spectinomycin analogs as antibacterial agents” (ST. JUDE CHILDREN'S RESEARCH HOSPITAL, INC., priority 2013, dated 2019).

One experiment concerns S. pneumoniae. The experiment is described as follows: Resistance frequency determination and cross resistance of spontaneous mutants. The experiment is classed as cell-based, Streptococcus pneumoniae. The note with it: cross resistance testing of 2 mutants.
Another experiment relates to S. pneumoniae D39x. Description: Mouse challenge, mouse model of lung infection. The following applies: 72 hours post challenge. The format is in vivo. The protocol:
Mice were treated with a 5 mg/kg dose b.i.d. of spectinomycin (indicated as “SPC” in the figure) or compound 2 (the compound number refers to the compound number and associated structure shown in Table 1), or vehicle. (Panel B) The bacterial burden of mice at 18 hours post-challenge with S. pneumoniae D39x. (Panel C) Representative bioluminescent images of mice at 72 hours post challenge.
All experimental animal protocols were approved by the St. Jude Children's Research Hospital Institutional Animal Care and Use Committee. Seven week old, female BalbC/J mice (Jackson Labs, Bar Harbor, Me.) we utilized in these studies. All mice were maintained in BSL2 facilities and all experiments were done under inhaled isoflurane (2.5%). Bacteria (strain D39x) were introduced by intranasal administration of 2×10^7 CFU in 25 μL PBS. Mice received no treatment, plasmalyte A (vehicle control), ampicillin (100 mg/kg), spectinomycin (50, 25, 5 mg/kg) or the respective compounds (50, 25, 5 mg/kg) at dosages indicated. Antibiotics were administered in a volume of 100 μL by subcutaneous […] starting at 18 hours post challenge, a time point when the mice have developed pneumonia and bacteria have translocated into the bloodstream. Mice were subsequently dosed every 12 hours until 96 hours post challenge. Mice were monitored daily for signs of infection and weight loss. Differences in time to death were compared via Kaplan-Meier survival estimates. Bacterial density in blood was quantified at 24, 48, 72, and 96 hours post infection via blood collection, serial dilution, and plating. Groups were then compared by Mann-Whitney to determine statistical significance. At 8 days following challenge, surviving mice were euthanized and bacterial loads in lungs determined by homogenization followed by serial dilution and plating. In all instances, surviving mice had completely cleared bacteria from both the lungs and the bloodstream by this time point.
Compound 2 was tested for anti-pneumococcal activity in mice as described above. […]

For experiment [1], the system named is Bacillus anthracis, Sterne 34F2. The experiment is described as follows: microbe, parasite or virus in culture. The experiment is classed as cell-based. The note with it: STERNE34F2, read-out: MIC B.a.
For experiment [2], the system named is Bacillus subtilis (ATCC 23857). Description: MIC determination, microbroth dilution. The note with it: ATCC23857; Bacillus subtilis (ATCC 23857); read-out: MIC B.s. The experiment is classed as cell-based.
Experiment [3] relates to Enterococcus faecalis (ATCC 33186). Description: MIC determination, microbroth dilution. The experiment is classed as cell-based. The note with it: ATCC33186; Enterococcus faecalis (ATCC 33186); read-out: MIC E.f.
Experiment [4] concerns Staphylococcus aureus (ATCC 29213). Description: MIC determination, microbroth dilution. The format is cell-based. The following applies: ATCC29213; Staphylococcus aureus (ATCC 29213); read-out: MIC S.a.
In experiment [5] the test system is MRSA, Staphylococcus aureus (NRS70). The experiment is described as follows: MIC determination, microbroth dilution. The following applies: Staphylococcus aureus (NRS70); read-out: MIC MRSA. The format is cell-based.
The test system of experiment [6] is Streptococcus pneumoniae (R6). The experiment is described as follows: MIC determination, microbroth dilution. The note with it: Streptococcus pneumoniae (R6); read-out: MIC S. pn. The experiment is classed as cell-based.
The subject of experiment [7] is Streptococcus pyogenes (ATCC 700294). The experiment is described as follows: MIC determination, microbroth dilution. The experiment is classed as cell-based. The note with it: ATCC700294; Streptococcus pyogenes (ATCC 700294); read-out: MIC S. py.
Experiment [8] concerns acinetobacter baumannii (ATCC 19606). The experiment is described as follows: MIC determination, microbroth dilution. The experiment is classed as cell-based. The note with it: ATCC19606.
Experiment [9] deals with Burkholderia cepacia (ATCC 25416). The experiment is described as follows: MIC determination, microbroth dilution. The format is cell-based. The following applies: Burkholderia cepacia.
The subject of experiment [10] is Escherichia coli (ATCC 700926). Description: MIC determination, microbroth dilution. The format is cell-based. The following applies: ATCC700926; Escherichia coli (ATCC 700926); read-out: MIC E.c.
Another experiment has as its system E. coli K12 ΔtolC. The experiment is described as follows: microbe, parasite or virus in culture. The format is cell-based. The following applies: Escherichia coli, read-out: MIC E.c. Δtolc.
Experiment [11] relates to Klebsiella pneumoniae (ATCC 33495). Description: MIC determination, microbroth dilution. The experiment is classed as cell-based. The following applies: ATCC33495.
The test system of experiment [12] is Pseudomonas aeruginosa (PA01). Description: MIC determination, microbroth dilution. The experiment is classed as cell-based.
In experiment [13] the test system is Proteus mirabilis (ATCC 25933). Description: MIC determination, microbroth dilution. The experiment is classed as cell-based. The following applies: ATCC25933.
The test system of experiment [14] is Proteus vulgaris (ATCC 33420). The experiment is described as follows: MIC determination, microbroth dilution. The format is cell-based. The note with it: ATCC33420.
Experiment [15] relates to Stenotrophomonas maltophilia (ATCC 13637). The experiment is described as follows: MIC determination, microbroth dilution. The experiment is classed as cell-based. The following applies: ATCC13637; Stenotrophomonas maltophilia (ATCC 13637); read-out: MIC S.m.
In experiment [16] the test system is Haemophilus influenza (ATCC 49247). Description: microbe, parasite or virus in culture. The format is cell-based. The following applies: ATCC49247; Haemophilus influenza; 4 μg per disc; range of at least two experiments; read-out: Zone of inhibition H.i.
In experiment [17] the test system is Neisseria meningitides (ATCC 13077). The experiment is described as follows: Disc diffusion assay. The experiment is classed as cell-based. The following applies: ATCC13077, 4 μg per disc, read-out: Zone of inhibition N.m.
Experiment [18] has as its system Neisseria gonorrhoeae (ATCC 49226). Description: Disc diffusion assay. The format is cell-based. The note with it: ATCC49226, 4 μg per disc, read-out: Zone of inhibition N.g.
The test system is the same in experiment [19]. Description: Agar MIC determination (Alamar Blue). The experiment is classed as cell-based. The following applies: ATCC49226, agar MIC, read-out: MIC N.g.
The next experiment concerns Bacillus anthracis. The experiment is described as follows: microbe, parasite or virus in culture. The experiment is classed as cell-based. The following applies: read-out: MIC B.a.
The test system of the next experiment is Yersinia pestis. Description: microbe, parasite or virus in culture. The experiment is classed as cell-based. The following applies: read-out: MIC Y.p.
Experiment [20] deals with M. tuberculosis clinical isolates. The experiment is described as follows: microbe, parasite or virus in culture. The experiment is classed as cell-based. The note with it: Mycobacterium tuberculosis, H37RV, read-out: MIC H37Rv.
For experiment [21], the system named is gram-positive and gram-negative bacteria. The format is cell-based.
The next experiment relates to Listeria monocytogenes. The experiment is described as follows: MIC determination (Table 6). The experiment is classed as cell-based.
For another experiment, the system named is Moraxella catarrhalis. Description: MIC determination (Table 6). The format is cell-based.

Where a name gives a salt, the structure may show the parent alone. Read-outs that look alike come from different tables or passages of the source.

On to `CC(=O)NC[C@H]1CN(c2ccc(N3CCOCC3)c(F)c2)C(=O)O1` [linezolid], for which the “susceptibility of mutants resistant to 2” value in the experiment with S. pneumoniae was “susceptible”.

Turning to `C[C@@H](O)[C@H]1C(=O)N2C(C(=O)O)=C(S[C@@H]3CN[C@H](C(=O)N(C)C)C3)[C@H](C)[C@H]12` [meropenem], the “susceptibility of mutants resistant to 2” value in the experiment on S. pneumoniae is given as “susceptible”.

For the compound `CN[C@@H]1[C@H](O)[C@H](NC)[C@H]2O[C@@]3(O)C(=O)C[C@@H](C)O[C@H]3O[C@@H]2[C@H]1O` [spectinomycin], the “susceptibility of mutants resistant to 2” value in the experiment on S. pneumoniae was “cross resistance”. Besides, the “bioluminescent images of mice” value with S. pneumoniae D39x is “systemic bacterial infection”.

On to `CN[C@H](CC(C)C)C(=O)N[C@H]1C(=O)N[C@@H](CC(N)=O)C(=O)N[C@H]2C(=O)N[C@H]3C(=O)N[C@H](C(=O)N[C@H](C(=O)O)c4cc(O)cc(O)c4-c4cc3ccc4O)[C@H](O)c3ccc(c(Cl)c3)Oc3cc2cc(c3O[C@@H]2O[C@H](CO)[C@@H](O)[C@H](O)[C@H]2O[C@H]2C[C@](C)(N)[C@H](O)[C@H](C)O2)Oc2ccc(cc2Cl)[C@H]1O` [vancomycin], for which the “susceptibility of mutants resistant to 2” value with S. pneumoniae is given as “susceptible”.

Take `CN[C@@H]1[C@H](O)[C@H](NC)[C@H]2O[C@]3(O)[C@H](O[C@@H]2[C@H]1O)O[C@H](C)C[C@@]3(O)CNCCCc1ccccc1` [compound 13, 3′-(R)-3′-(phenylpropylaminomethyl)dihydrospectinomycin Trihydrochloride]: the MIC in experiment [1] was 3.1 to 6.3 µg/mL; in [2], 6.3 µg/mL; in [3] it was 6.3 µg/mL; in experiment [4], 12.5 µg/mL; in [5], 12.5 to 25 µg/mL; in experiment [6] it was 3.1 µg/mL. Besides, the MIC in experiment [7] is 3.1 µg/mL; in [8], over 200 µg/mL; in [9] (ATCC25416, read-out: MIC B.c., Burkholderia cepacia (ATCC 25416)), over 200 µg/mL; in experiment [9] (ATCC25416, read-out: MIC B.c., Burkholderia cepacia, Table 6), over 200 µg/mL; in experiment [10] it was 12.5 µg/mL; with E. coli K12 ΔtolC it was 6.3 µg/mL. The MIC in experiment [11] was 50 µg/mL; in [12] it was 200 µg/mL; in experiment [13], over 200 µg/mL; in [14] it was at least 200 µg/mL; in experiment [15], 6.3 to 12.5 µg/mL; in experiment [19], 12.5 to 25 µg/mL. Moreover, the MIC in the experiment with Bacillus anthracis is 3.1 to 6.3 µg/mL; in the experiment with Yersinia pestis, 50 µg/mL; in experiment [20] it was 3.1 µg/mL; against Listeria monocytogenes, 1.6 to 3.1 µg/mL; with Moraxella catarrhalis, 0.4 µg/mL. The figures for the zone of inhibition at 4 µg/disc in experiment [16], in experiment [17] and in experiment [18] were 14 mm, 21 mm and 15 mm, respectively. Moreover, the “MIC relative to parent SPC” value in experiment [21] is ~10 % of parent SPC.

As for `NCC[C@H](O)C(=O)N[C@@H]1C[C@H](N)[C@@H](O[C@H]2O[C@H](CN)[C@@H](O)[C@H](O)[C@H]2O)[C@H](O)[C@H]1O[C@H]1O[C@H](CO)[C@@H](O)[C@H](N)[C@H]1O` [amikacin], in the experiment on S. pneumoniae, the “susceptibility of mutants resistant to 2” value is recorded as “susceptible”.
